According to patent publication US20230086703A1, “N-(4-(5-chloropyridin-3-yl)phenyl)-2-(2-(cyclopropanesulfonamido)pyrimidin-4-yl) butanamide derivatives and related compounds as human CTPS1 inhibitors for the treatment of proliferative diseases” (Step Pharma S.A.S., priority 2019, published 2023):

Molecular target: T1, human CTPS1 (Homo sapiens, UniProt P17812)
T1 construct: FLAG (with GG linker); His8 (with GG linker); purchased Proteros biostructures GmbH
T1 sequence (P17812 1-591): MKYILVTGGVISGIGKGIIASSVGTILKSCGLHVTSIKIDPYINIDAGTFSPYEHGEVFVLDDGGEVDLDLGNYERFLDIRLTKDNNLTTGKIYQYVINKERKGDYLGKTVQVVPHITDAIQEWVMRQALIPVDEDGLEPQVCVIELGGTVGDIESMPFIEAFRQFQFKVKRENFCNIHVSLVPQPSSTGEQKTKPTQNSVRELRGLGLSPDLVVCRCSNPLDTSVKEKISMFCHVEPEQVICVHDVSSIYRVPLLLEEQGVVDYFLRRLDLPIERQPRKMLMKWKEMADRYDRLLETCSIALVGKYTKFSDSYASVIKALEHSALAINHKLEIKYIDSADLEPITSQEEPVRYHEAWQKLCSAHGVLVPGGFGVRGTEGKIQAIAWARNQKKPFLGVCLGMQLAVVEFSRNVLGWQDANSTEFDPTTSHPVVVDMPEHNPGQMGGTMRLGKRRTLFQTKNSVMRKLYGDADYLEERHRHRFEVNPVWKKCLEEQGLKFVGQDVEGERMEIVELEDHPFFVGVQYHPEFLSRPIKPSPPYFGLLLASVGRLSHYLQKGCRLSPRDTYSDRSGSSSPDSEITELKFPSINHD
Assay: Human CTPS1 enzyme inhibition, ADP-Glo Max assay
Type: biochemical
Conditions: ADP-Glo Max assay; Table 10; read-out: Human CTPS1 Enzyme Inhibition, IC50 grouped by potency range (CTPS1)
Outline: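 Enzyme preincubated with compound for 10 min at 25 °C in 50 mM Tris pH 8.0, 10 mM MgCl2, 0.01% Tween-20, 2 mM L-cysteine. ATP-to-ADP conversion detected by ADP-Glo Max luminescence after 60 min depletion and 60 min development steps. Percentage inhibition calculated per concentration.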

Row | IC50 [nM] | Structure (SMILES)
1 | < 100 | CC(C)(C(=O)Nc1ccc(-c2cncc(Cl)n2)cn1)c1csc(NS(=O)(=O)C2CC2)n1 [T262, N-(5-(6-chloropyrazin-2-yl)pyridin-2-yl)-2-(2-(cyclopropanesulfonamido)thiazol-4-yl)-2-methylpropanamide]
2 | 1000 to 10000 | CC(C)(C(=O)Nc1ccc(-c2cncc(C#N)n2)cn1)c1csc(NS(=O)(=O)C2CC2)n1 [T263, N-(5-(6-cyanopyrazin-2-yl)pyridin-2-yl)-2-(2-(cyclopropanesulfonamido)thiazol-4-yl)-2-methylpropanamide]
3 | 100 to 1000 | CC(C)(C(=O)Nc1ccc(-c2cncnc2)cn1)c1csc(NS(=O)(=O)C2CC2)n1 [T264, 2-(2-(cyclopropanesulfonamido)thiazol-4-yl)-2-methyl-N-(5-(pyrimidin-5-yl)pyridin-2-yl)propanamide]
4 | < 100 | COc1cncc(-c2ccc(NC(=O)C(C)(C)c3csc(NS(=O)(=O)C4CC4)n3)cc2)n1 [T265, 2-(2-(cyclopropanesulfonamido)thiazol-4-yl)-N-(4-(6-methoxypyrazin-2-yl)phenyl)-2-methylpropanamide]
5 | < 100 | Cc1cncc(-c2ccc(NC(=O)C(C)(C)c3csc(NS(=O)(=O)C4CC4)n3)cc2)n1 [T266, 2-(2-(cyclopropanesulfonamido)thiazol-4-yl)-2-methyl-N-(4-(6-methylpyrazin-2-yl)phenyl)propanamide]
6 | < 100 | CC(C)(C(=O)Nc1ccc(-c2cncc(C(F)(F)F)n2)cc1)c1csc(NS(=O)(=O)C2CC2)n1 [T267, 2-(2-(cyclopropanesulfonamido)thiazol-4-yl)-2-methyl-N-(4-(6-(trifluoromethyl)pyrazin-2-yl)phenyl)propanamide]
7 | 100 to 1000 | CC(C)(C(=O)Nc1ccc(-c2cccc(Cl)n2)cc1)c1csc(NS(=O)(=O)C2CC2)n1 [T268, N-(4-(6-chloropyridin-2-yl)phenyl)-2-(2-(cyclopropanesulfonamido)thiazol-4-yl)-2-methylpropanamide]
8 | 100 to 1000 | COc1cccc(-c2ccc(NC(=O)C(C)(C)c3csc(NS(=O)(=O)C4CC4)n3)cc2)n1 [T269, 2-(2-(cyclopropanesulfonamido)thiazol-4-yl)-N-(4-(6-methoxypyridin-2-yl)phenyl)-2-methylpropanamide]
9 | 100 to 1000 | CC(C)(C(=O)Nc1ccc(-c2cccc(C(F)(F)F)n2)cc1)c1csc(NS(=O)(=O)C2CC2)n1 [T270, 2-(2-(cyclopropanesulfonamido)thiazol-4-yl)-2-methyl-N-(4-(6-(trifluoromethyl)pyridin-2-yl)phenyl)propanamide]
10 | 1000 to 10000 | COc1ccnc(-c2ccc(NC(=O)C(C)(C)c3csc(NS(=O)(=O)C4CC4)n3)cc2)c1 [T271, 2-(2-(cyclopropanesulfonamido)thiazol-4-yl)-N-(4-(4-methoxypyridin-2-yl)phenyl)-2-methylpropanamide]
11 | < 100 | CC(C)Oc1cncc(-c2ccc(NC(=O)C(C)(C)c3csc(NS(=O)(=O)C4CC4)n3)cc2)n1 [T272, 2-(2-(cyclopropanesulfonamido)thiazol-4-yl)-N-(4-(6-isopropoxypyrazin-2-yl)phenyl)-2-methylpropanamide]
12 | < 100 | CC(C)(C(=O)Nc1ccc(-c2cncc(OC3CC3)n2)cc1)c1csc(NS(=O)(=O)C2CC2)n1 [T273, 2-(2-(cyclopropanesulfonamido)thiazol-4-yl)-N-(4-(6-cyclopropoxypyrazin-2-yl)phenyl)-2-methylpropanamide]
13 | < 100 | COc1cncc(-c2ccc(NC(=O)C(C)(C)c3csc(NS(=O)(=O)C4CC4)n3)c(F)c2)n1 [T275, 2-(2-(cyclopropanesulfonamido)thiazol-4-yl)-N-(2-fluoro-4-(6-methoxypyrazin-2-yl)phenyl)-2-methylpropanamide]
14 | 100 to 1000 | Cc1ncc(Cl)nc1-c1ccc(NC(=O)C(C)(C)c2csc(NS(=O)(=O)C3CC3)n2)cc1 [T276, N-(4-(6-chloro-3-methylpyrazin-2-yl)phenyl)-2-(2-(cyclopropanesulfonamido)thiazol-4-yl)-2-methylpropanamide]
15 | < 100 | CC(C)(C(=O)Nc1ccc(-c2cncc(N3CCCC3)n2)cc1)c1csc(NS(=O)(=O)C2CC2)n1 [T278, 2-(2-(cyclopropanesulfonamido)thiazol-4-yl)-2-methyl-N-(4-(6-(pyrrolidin-1-yl)pyrazin-2-yl)phenyl)propanamide]
16 | 1000 to 10000 | CN(C)CCOc1cncc(-c2ccc(NC(=O)C(C)(C)c3csc(NS(=O)(=O)C4CC4)n3)cc2)n1 [T279, 2-(2-(cyclopropanesulfonamido)thiazol-4-yl)-N-(4-(6-(2-(dimethylamino)ethoxy)pyrazin-2-yl)phenyl)-2-methylpropanamide]

Row | IC50 [nM] | Structure (SMILES)
17 | 1000 to 10000 | Cc1nccnc1-c1ccc(NC(=O)C(C)(C)c2csc(NS(=O)(=O)C3CC3)n2)cc1 [T280, 2-(2-(cyclopropanesulfonamido)thiazol-4-yl)-2-methyl-N-(4-(3-methylpyrazin-2-yl)phenyl)propanamide]
18 | 100 to 1000 | CC(=O)Nc1cncc(-c2ccc(NC(=O)C(C)(C)c3csc(NS(=O)(=O)C4CC4)n3)cc2)n1 [T281, N-(4-(6-acetamidopyrazin-2-yl)phenyl)-2-(2-(cyclopropanesulfonamido)thiazol-4-yl)-2-methylpropanamide]
19 | 100 to 1000 | Cc1ncc(-c2ccc(NC(=O)C(C)(C)c3csc(NS(=O)(=O)C4CC4)n3)cc2)nc1C [T282, 2-(2-(cyclopropanesulfonamido)thiazol-4-yl)-N-(4-(5,6-dimethylpyrazin-2-yl)phenyl)-2-methylpropanamide]
20 | 100 to 1000 | CC(C)(C(=O)Nc1ccc(-c2cncc(CO)n2)cc1)c1csc(NS(=O)(=O)C2CC2)n1 [T283, 2-(2-(cyclopropanesulfonamido)thiazol-4-yl)-N-(4-(6-(hydroxymethyl)pyrazin-2-yl)phenyl)-2-methylpropanamide]
21 | 1000 to 10000 | Cc1cnc(C)c(-c2ccc(NC(=O)C(C)(C)c3csc(NS(=O)(=O)C4CC4)n3)cc2)n1 [T284, 2-(2-(cyclopropanesulfonamido)thiazol-4-yl)-N-(4-(3,6-dimethylpyrazin-2-yl)phenyl)-2-methylpropanamide]
22 | < 100 | COc1cncc(-c2ccc(NC(=O)C(C)(C)c3csc(NS(=O)(=O)C4CC4)n3)c(C)c2)c1 [T285, 2-(2-(cyclopropanesulfonamido)thiazol-4-yl)-N-(4-(5-methoxypyridin-3-yl)-2-methylphenyl)-2-methylpropanamide]
23 | < 100 | Cc1cc(-c2cncc(C#N)c2)ccc1NC(=O)C(C)(C)c1csc(NS(=O)(=O)C2CC2)n1 [T286, N-(4-(5-cyanopyridin-3-yl)-2-methylphenyl)-2-(2-(cyclopropanesulfonamido)thiazol-4-yl)-2-methylpropanamide]
24 | < 100 | Cc1cc(-c2cncc(F)c2)ccc1NC(=O)C(C)(C)c1csc(NS(=O)(=O)C2CC2)n1 [T287, 2-(2-(cyclopropanesulfonamido)thiazol-4-yl)-N-(4-(5-fluoropyridin-3-yl)-2-methylphenyl)-2-methylpropanamide]
25 | 100 to 1000 | Cc1cc(NC(=O)C(C)(C)c2csc(NS(=O)(=O)C3CC3)n2)ccc1-c1cncc(Cl)c1 [T288, N-(4-(5-chloropyridin-3-yl)-3-methylphenyl)-2-(2-(cyclopropanesulfonamido)thiazol-4-yl)-2-methylpropanamide]
26 | 100 to 1000 | CCOc1cc(NC(=O)C(C)(C)c2csc(NS(=O)(=O)C3CC3)n2)ccc1-c1cncc(C#N)c1 [T289, N-(4-(5-cyanopyridin-3-yl)-3-ethoxyphenyl)-2-(2-(cyclopropanesulfonamido)thiazol-4-yl)-2-methylpropanamide]
27 | < 100 | CCOc1cncc(-c2ccc(NC(=O)C(C)(C)c3csc(NS(=O)(=O)C4CC4)n3)cc2)c1 [T290, 2-(2-(cyclopropanesulfonamido)thiazol-4-yl)-N-(4-(5-ethoxypyridin-3-yl)phenyl)-2-methylpropanamide]
28 | 100 to 1000 | COc1cncc(-c2cnc(NC(=O)C(C)(C)c3csc(NS(=O)(=O)C4CC4)n3)nc2)c1 [T292, 2-(2-(cyclopropanesulfonamido)thiazol-4-yl)-N-(5-(5-methoxypyridin-3-yl)pyrimidin-2-yl)-2-methylpropanamide]
29 | 100 to 1000 | CC(C)(C(=O)Nc1ncc(-c2cncc(F)c2)cn1)c1csc(NS(=O)(=O)C2CC2)n1 [T293, 2-(2-(cyclopropanesulfonamido)thiazol-4-yl)-N-(5-(5-fluoropyridin-3-yl)pyrimidin-2-yl)-2-methylpropanamide]
30 | 100 to 1000 | CC(C)(C(=O)Nc1ncc(-c2cncc(C(F)(F)F)c2)cn1)c1csc(NS(=O)(=O)C2CC2)n1 [T294, 2-(2-(cyclopropanesulfonamido)thiazol-4-yl)-2-methyl-N-(5-(5-(trifluoromethyl)pyridin-3-yl)pyrimidin-2-yl)propanamide]
31 | 100 to 1000 | CCOc1cncc(-c2ccc(NC(=O)C(C)(C)c3csc(NS(=O)(=O)CC(C)C)n3)nc2)n1 [T295, N-(5-(6-ethoxypyrazin-2-yl)pyridin-2-yl)-2-methyl-2-(2-((2-methylpropyl)sulfonamido)thiazol-4-yl)propanamide]
